Assay results: patent US20080009418A1, “Selective Inhibitors” (Alchemia LTD., priority 2004, published 2008)

Assays:
Human melanocortin (MC5) = target: T1, Human melanocortin (MC5) (Homo sapiens, UniProt P33032); test: Radioligand binding, human melanocortin MC5 membranes, FlashPlate, [125I]-NDP-αMSH; details: compound at 10 μM, [125I]-NDP-αMSH; for A5: inhibition of radioligand binding: FlashPlate
T1 construct: purchased Perkin Elmer Biosignal
Summary of the method: (§1)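 Cloned human receptor membranes were coated onto FlashPlate wells and incubated with radioligand and compound (added from a 0.5 mM DMSO daughter plate) for 1 hour at room temperature in the dark. Scintillation counting gave percent inhibition, with DMSO defining total and reference ligand defining non-specific binding.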

Human opioid (ORL1) = target: T2, Human opioid (ORL1) (Homo sapiens, UniProt P41146); test: Radioligand binding, human opioid ORL1 membranes, FlashPlate, [125I]-Nociceptin; details: compound at 10 μM, [125I]-Nociceptin; for A10: inhibition of radioligand binding: FlashPlate
T2 construct: purchased Perkin Elmer Biosignal
Summary of the method: as §1

Human Melanocortin (MC3) = target: T3, Human Melanocortin (MC3) (Homo sapiens, UniProt P41968); test: Radioligand binding, human melanocortin MC3 membranes, FlashPlate, [125I]-NDP-αMSH; details: compound at 10 μM, [125I]-NDP-αMSH; for A3: inhibition of radioligand binding: FlashPlate
T3 construct: purchased Perkin Elmer Biosignal
Summary of the method: as §1

Human κ-Opioid (KOP) = target: T4, Human κ-Opioid (KOP) (Homo sapiens, UniProt P41145); test: Radioligand binding, human κ-opioid (KOP) membranes, filtration, [3H]-Diprenorphine; details: compound at 10 μM, [3H]-Diprenorphine; for A2: inhibition of radioligand binding: filtration
T4 construct: purchased Perkin Elmer Biosignal
Summary of the method: (§2)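 Membranes from cloned human receptors were incubated with compound and radioligand for 1 hour at room temperature. Bound ligand was collected on 0.3% PEI-soaked filters, washed with cold 50 mM Tris-HCl pH 7.4, and counted by scintillation. Percent inhibition was computed against DMSO totals and reference-ligand nonspecific wells.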

[1] = target: T5, Human neuropeptide Y (NPY-Y1) (Homo sapiens, UniProt P25929); test: Radioligand binding, human neuropeptide Y NPY-Y1 membranes, FlashPlate, [125I]-PYY; details: compound at 10 μM, [125I]-PYY; for A9: inhibition of radioligand binding: FlashPlate
T5 construct: purchased Perkin Elmer Biosignal
T5 sequence (P25929 1-384): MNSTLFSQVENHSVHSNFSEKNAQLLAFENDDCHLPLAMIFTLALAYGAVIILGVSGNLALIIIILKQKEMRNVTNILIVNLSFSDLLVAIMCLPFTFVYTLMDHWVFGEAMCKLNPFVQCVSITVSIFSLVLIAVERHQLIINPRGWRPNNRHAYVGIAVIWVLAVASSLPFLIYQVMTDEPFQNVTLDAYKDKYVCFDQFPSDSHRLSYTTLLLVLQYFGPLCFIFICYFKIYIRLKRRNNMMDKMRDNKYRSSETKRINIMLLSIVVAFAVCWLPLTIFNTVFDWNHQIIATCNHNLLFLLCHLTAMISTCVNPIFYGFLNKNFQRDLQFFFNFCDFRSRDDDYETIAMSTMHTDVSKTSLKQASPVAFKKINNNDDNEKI
Summary of the method: as §1

Human μ-opioid (MOP) = target: T6, Human μ-opioid (MOP) (Homo sapiens, UniProt P35372); test: Radioligand binding, human μ-opioid (MOP) membranes, FlashPlate, [3H]-Naloxone; details: compound at 10 μM, [3H]-Naloxone; for A7: inhibition of radioligand binding: FlashPlate
T6 construct: purchased Perkin Elmer Biosignal
Summary of the method: as §1

Human δ-opioid (DOP) = target: T7, Human δ-opioid (DOP) (Homo sapiens, UniProt P41143); test: Radioligand binding, human δ-opioid (DOP) membranes, FlashPlate, [3H]-Bremazocine; details: compound at 10 μM, [3H]-Bremazocine; for A1: inhibition of radioligand binding: FlashPlate
T7 construct: purchased Perkin Elmer Biosignal
Summary of the method: as §1

Mouse urotensin (mUR2) = target: T8, Mouse urotensin (mUR2) (Mus musculus, UniProt Q8VIH9); test: Radioligand binding, mouse urotensin mUR2 membranes, FlashPlate, [125I]-Urotensin II; details: compound at 10 μM, [125I]-Urotensin II; for A11: inhibition of radioligand binding: FlashPlate
T8 construct: purchased Perkin Elmer Biosignal
T8 sequence (Q8VIH9 1-385): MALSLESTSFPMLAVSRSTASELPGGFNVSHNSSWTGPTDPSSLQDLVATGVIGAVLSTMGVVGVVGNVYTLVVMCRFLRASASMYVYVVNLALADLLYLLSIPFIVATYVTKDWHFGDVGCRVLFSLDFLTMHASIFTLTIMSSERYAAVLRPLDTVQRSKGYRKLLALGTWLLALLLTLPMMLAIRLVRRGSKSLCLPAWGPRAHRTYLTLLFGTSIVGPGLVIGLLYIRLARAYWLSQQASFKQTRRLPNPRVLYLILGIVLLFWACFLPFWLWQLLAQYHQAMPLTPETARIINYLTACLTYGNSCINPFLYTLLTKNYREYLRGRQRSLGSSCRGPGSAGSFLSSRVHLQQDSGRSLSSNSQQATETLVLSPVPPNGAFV
Summary of the method: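 Cloned mouse urotensin (mUR2) receptor membranes from Perkin Elmer Biosignal were immobilized in FlashPlate microplates using a proprietary coating. Each well got 19.5 μl buffer, then 0.5 μl of DMSO, reference ligand, or compound. Adding 5 μl of [125I]-Urotensin II, diluted to 5× final concentration in binding buffer, started binding. Plates were sealed with TopSeal-A and incubated 1 hour at room temperature in the dark. Wells were counted for 30 seconds each on a TopCount after a 60-second delay, and percentage inhibition was calculated.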

[2] = target: T9, Human melanin-concentrating hormone (MCH1) (Homo sapiens, UniProt Q99705); test: Radioligand binding, human melanin-concentrating hormone MCH1 membranes, FlashPlate, [125I]-S36057; details: compound at 10 μM; for A6: inhibition of radioligand binding: [125I]-S36057, FlashPlate
T9 construct: purchased Perkin Elmer Biosignal
Summary of the method: as §1

Human Melanocortin (MC4) = target: T10, Human Melanocortin (MC4) (Homo sapiens, UniProt P32245); test: Radioligand binding, human melanocortin MC4 membranes, FlashPlate, [125I]-NDP-αMSH; details: compound at 10 μM, [125I]-NDP-αMSH; for A4: inhibition of radioligand binding: FlashPlate
T10 construct: purchased Perkin Elmer Biosignal
Summary of the method: as §1

Human neurokinin (NK1) = target: T11, Human neurokinin (NK1) (Homo sapiens, UniProt P25103); test: Radioligand binding, human neurokinin NK1 membranes, filtration, [125I]-Substance P; details: compound at 10 μM, [125I]-Substance P; for A8: inhibition of radioligand binding: filtration
T11 construct: purchased Perkin Elmer Biosignal
Summary of the method: as §2

T1 sequence (P33032 whole entry): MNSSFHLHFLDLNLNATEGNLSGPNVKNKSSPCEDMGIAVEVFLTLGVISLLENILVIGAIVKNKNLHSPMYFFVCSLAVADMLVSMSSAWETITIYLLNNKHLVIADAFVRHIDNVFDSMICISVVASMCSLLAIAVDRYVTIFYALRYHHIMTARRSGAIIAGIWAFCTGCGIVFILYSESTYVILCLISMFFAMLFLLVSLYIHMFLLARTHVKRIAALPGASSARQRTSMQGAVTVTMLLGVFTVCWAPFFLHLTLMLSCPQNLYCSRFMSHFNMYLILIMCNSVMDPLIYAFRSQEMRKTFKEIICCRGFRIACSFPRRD
T11 sequence (P25103 whole entry): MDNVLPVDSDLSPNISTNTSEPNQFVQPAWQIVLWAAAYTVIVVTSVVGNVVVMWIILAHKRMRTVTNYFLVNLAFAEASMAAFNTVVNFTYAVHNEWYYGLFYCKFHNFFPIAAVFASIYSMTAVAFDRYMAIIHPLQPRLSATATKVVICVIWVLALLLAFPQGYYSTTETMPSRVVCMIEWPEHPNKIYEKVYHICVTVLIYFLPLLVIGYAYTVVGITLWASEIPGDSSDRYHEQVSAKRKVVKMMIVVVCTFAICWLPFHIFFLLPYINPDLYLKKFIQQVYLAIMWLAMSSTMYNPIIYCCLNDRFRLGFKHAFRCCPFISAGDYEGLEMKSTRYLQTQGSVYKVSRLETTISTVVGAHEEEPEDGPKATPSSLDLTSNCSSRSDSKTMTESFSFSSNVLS
T10 sequence (P32245 whole entry): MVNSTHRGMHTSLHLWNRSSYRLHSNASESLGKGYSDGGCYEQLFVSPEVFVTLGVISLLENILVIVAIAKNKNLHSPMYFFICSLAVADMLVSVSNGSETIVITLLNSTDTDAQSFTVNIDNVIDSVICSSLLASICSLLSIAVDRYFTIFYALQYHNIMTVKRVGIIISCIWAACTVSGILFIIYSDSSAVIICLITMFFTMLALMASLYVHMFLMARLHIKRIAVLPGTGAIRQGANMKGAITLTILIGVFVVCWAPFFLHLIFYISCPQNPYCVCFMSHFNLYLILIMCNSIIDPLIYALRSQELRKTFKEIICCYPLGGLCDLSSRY
T4 sequence (P41145 whole entry): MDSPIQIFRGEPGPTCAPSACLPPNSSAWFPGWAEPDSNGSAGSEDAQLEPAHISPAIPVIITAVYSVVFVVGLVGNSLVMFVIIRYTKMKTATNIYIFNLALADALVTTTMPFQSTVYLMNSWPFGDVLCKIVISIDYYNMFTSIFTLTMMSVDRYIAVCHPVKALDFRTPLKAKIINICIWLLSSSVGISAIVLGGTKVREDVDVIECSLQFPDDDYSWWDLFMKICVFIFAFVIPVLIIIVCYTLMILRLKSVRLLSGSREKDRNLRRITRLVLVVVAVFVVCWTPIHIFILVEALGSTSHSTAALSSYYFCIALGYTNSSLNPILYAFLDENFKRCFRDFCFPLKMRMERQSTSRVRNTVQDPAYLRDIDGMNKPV
T6 sequence (P35372 whole entry): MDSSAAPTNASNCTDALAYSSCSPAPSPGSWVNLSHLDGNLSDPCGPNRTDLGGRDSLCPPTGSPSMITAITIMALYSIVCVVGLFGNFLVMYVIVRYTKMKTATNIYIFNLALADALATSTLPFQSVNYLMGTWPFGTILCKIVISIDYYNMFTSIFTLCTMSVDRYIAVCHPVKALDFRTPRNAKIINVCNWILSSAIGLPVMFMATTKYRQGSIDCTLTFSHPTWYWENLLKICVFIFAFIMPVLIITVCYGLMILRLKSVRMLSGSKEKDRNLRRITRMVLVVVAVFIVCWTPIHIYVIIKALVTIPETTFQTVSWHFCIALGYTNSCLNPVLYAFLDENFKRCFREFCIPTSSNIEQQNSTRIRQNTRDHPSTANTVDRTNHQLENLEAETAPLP
T9 sequence (Q99705 whole entry): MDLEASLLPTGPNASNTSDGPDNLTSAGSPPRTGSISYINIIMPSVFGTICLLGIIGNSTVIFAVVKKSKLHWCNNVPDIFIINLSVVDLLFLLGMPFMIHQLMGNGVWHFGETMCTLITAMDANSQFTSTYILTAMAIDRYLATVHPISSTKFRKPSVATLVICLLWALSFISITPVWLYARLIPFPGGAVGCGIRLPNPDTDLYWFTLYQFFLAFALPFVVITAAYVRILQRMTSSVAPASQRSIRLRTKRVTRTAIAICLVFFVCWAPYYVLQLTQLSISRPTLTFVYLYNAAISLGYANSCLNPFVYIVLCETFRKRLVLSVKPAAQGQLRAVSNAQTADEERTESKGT
T3 sequence (P41968 whole entry): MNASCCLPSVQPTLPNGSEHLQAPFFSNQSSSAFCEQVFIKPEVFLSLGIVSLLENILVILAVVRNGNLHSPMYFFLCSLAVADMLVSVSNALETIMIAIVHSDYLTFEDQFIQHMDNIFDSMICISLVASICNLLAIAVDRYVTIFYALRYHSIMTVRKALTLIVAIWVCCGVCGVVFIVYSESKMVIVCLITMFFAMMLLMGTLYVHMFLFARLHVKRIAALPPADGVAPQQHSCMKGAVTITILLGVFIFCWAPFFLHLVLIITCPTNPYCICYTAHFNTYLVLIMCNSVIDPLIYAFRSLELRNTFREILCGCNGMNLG
T2 sequence (P41146 whole entry): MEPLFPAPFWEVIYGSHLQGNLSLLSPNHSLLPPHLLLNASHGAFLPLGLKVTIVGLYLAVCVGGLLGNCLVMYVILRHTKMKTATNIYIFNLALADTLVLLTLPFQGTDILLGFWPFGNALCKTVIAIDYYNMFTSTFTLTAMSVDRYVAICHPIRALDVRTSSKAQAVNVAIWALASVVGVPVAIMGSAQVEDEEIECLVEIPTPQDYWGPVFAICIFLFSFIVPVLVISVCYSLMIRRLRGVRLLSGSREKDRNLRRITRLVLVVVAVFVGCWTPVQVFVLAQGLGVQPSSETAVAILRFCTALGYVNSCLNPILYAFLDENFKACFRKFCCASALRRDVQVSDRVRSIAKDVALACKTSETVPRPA
T7 sequence (P41143 whole entry): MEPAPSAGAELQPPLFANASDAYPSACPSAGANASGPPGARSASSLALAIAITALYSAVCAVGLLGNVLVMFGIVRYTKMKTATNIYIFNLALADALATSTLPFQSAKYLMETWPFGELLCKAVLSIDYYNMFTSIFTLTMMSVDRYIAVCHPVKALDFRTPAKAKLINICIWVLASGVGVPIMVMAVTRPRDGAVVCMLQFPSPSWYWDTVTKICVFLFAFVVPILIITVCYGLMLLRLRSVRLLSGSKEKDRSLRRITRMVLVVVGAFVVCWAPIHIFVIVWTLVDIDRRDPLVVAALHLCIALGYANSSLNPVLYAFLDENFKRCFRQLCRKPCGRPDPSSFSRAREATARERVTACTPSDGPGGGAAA

Row | Structure (SMILES) | A5: inhibition of radioligand binding (Human melanocortin (MC5)) | A10: inhibition of radioligand binding (Human opioid (ORL1)) | A3: inhibition of radioligand binding (Human Melanocortin (MC3)) | A2: inhibition of radioligand binding (Human κ-Opioid (KOP)) | A9: inhibition of radioligand binding [1] | A7: inhibition of radioligand binding (Human μ-opioid (MOP)) | A1: inhibition of radioligand binding (Human δ-opioid (DOP)) | A11: inhibition of radioligand binding (Mouse urotensin (mUR2)) | A6: inhibition of radioligand binding [2] | A4: inhibition of radioligand binding (Human Melanocortin (MC4)) | A8: inhibition of radioligand binding (Human neurokinin (NK1)) | also measured
1 | N=C(N)NCC(=O)N[C@H]1C(OCc2ccc(Cl)cc2)O[C@H](COCc2ccccc2)[C@@H](O)[C@@H]1OCc1ccc(-c2ccccc2)cc1 (stereo partly drawn) [compound 519] |  |  |  |  |  |  |  |  |  |  |  | A5: inhibition of radioligand binding, human melanocortin (MC5) (Human melanocortin (MC5); 10 µM): + (“+” indicates greater than 50% inhibition at 10 μM); A10: inhibition of radioligand binding, human opioid (ORL1) (Human opioid (ORL1)): − (“−” indicates less than 50% inhibition at 10 μM); A3: inhibition of radioligand binding, human melanocortin (MC3) (Human Melanocortin (MC3); 10 µM): + (“+” indicates greater than 50% inhibition at 10 μM); A2: inhibition of radioligand binding, human κ-opioid (KOP) (Human κ-Opioid (KOP)): − (“−” indicates less than 50% inhibition at 10 μM); A9: inhibition of radioligand binding, human neuropeptide Y (NPY-Y1) [1]: − (“−” indicates less than 50% inhibition at 10 μM); A7: inhibition of radioligand binding, human μ-opioid (MOP) (Human μ-opioid (MOP)): − (“−” indicates less than 50% inhibition at 10 μM); A1: inhibition of radioligand binding, human δ-opioid (DOP) (Human δ-opioid (DOP)): − (“−” indicates less than 50% inhibition at 10 μM); A11: inhibition of radioligand binding, mouse urotensin (mUR2) (Mouse urotensin (mUR2)): − (“−” indicates less than 50% inhibition at 10 μM); A6: inhibition of radioligand binding, human melanin-concentrating hormone (MCH1) ([2]; [125I]-S36057, 10 µM): + (“+” indicates greater than 50% inhibition at 10 μM); A4: inhibition of radioligand binding, human melanocortin (MC4) (Human Melanocortin (MC4); 10 µM): + (“+” indicates greater than 50% inhibition at 10 μM); A8: inhibition of radioligand binding, human neurokinin (NK1) (Human neurokinin (NK1)): + (“+” indicates greater than 50% inhibition at 10 μM)
2 | CSC1O[C@H](COCc2ccc3ccccc3c2)[C@@H](O)[C@@H](OCc2ccc(Cl)cc2)[C@H]1NC(=O)CN (stereo partly drawn) [compound 280] | − (“−” indicates less than 50% inhibition at 10 μM) | − (“−” indicates less than 50% inhibition at 10 μM) | − (“−” indicates less than 50% inhibition at 10 μM) | − (“−” indicates less than 50% inhibition at 10 μM) | − (“−” indicates less than 50% inhibition at 10 μM) | − (“−” indicates less than 50% inhibition at 10 μM) | − (“−” indicates less than 50% inhibition at 10 μM) | − (“−” indicates less than 50% inhibition at 10 μM) | − (“−” indicates less than 50% inhibition at 10 μM) | − (“−” indicates less than 50% inhibition at 10 μM) | + (“+” indicates greater than 50% inhibition at 10 μM) | 
3 | CSC1OC(COCc2ccc(-c3ccccc3)cc2)C(O)C(OCc2ccccc2)C1NC(=O)CCN (stereo not drawn) [compound 256] | − (“−” indicates less than 50% inhibition at 10 μM) | − (“−” indicates less than 50% inhibition at 10 μM) | − (“−” indicates less than 50% inhibition at 10 μM) | − (“−” indicates less than 50% inhibition at 10 μM) | − (“−” indicates less than 50% inhibition at 10 μM) | − (“−” indicates less than 50% inhibition at 10 μM) | − (“−” indicates less than 50% inhibition at 10 μM) | − (“−” indicates less than 50% inhibition at 10 μM) | − (“−” indicates less than 50% inhibition at 10 μM) | − (“−” indicates less than 50% inhibition at 10 μM) | + (“+” indicates greater than 50% inhibition at 10 μM) | 
